Laboratory results as given in ChEMBL document CHEMBL5537169, “Structure-Activity Relationships and Discovery of (S)-6-Isopropyl-2-methoxy-3-(3-methoxypropoxy)-10-oxo-5,10-dihydro-6H-pyrido[1,2-h][1,7]naphthyridine-9-carboxylic Acid (AB-452), a Novel Orally Available HBV RNA Destabilizer” (J Med Chem, 2024).
Converted amounts (≈) assume the structure as drawn.

How the values were obtained:
[1] = Clearance in human liver microsomes at 0.3 uM pre-incubated for 10 mins followed by NADPH addition incubated for 60 mins by LC-MS/MS analysis; format: ADME, Microsome; settings: time 70 min, read-out: CLH
[2] = Clearance in Sprague-Dawley rat at 2 mg/kg,iv measured at 0.083 to 24 hrs post administration by LC-MS/MS analysis; format: ADME, organism-based; settings: in vivo, time 0.083-24 hrs
[3] = Cmax in Sprague-Dawley rat at 10 mg/kg,po measured at 0.083 to 24 hrs post administration by LC-MS/MS analysis; format: ADME, organism-based; settings: Sprague-Dawley, in vivo, time 0.083-24 hrs, read-out: Cmax
[4] = Apparent volume of distribution at steady state in CD-1 mouse at 2 mg/kg,iv measured at 0.083 to 24 hrs post administration by LC-MS/MS analysis; format: ADME, organism-based; settings: in vivo, time 0.083-24 hrs, read-out: Vdss(app)
[5] = Half life in CD-1 mouse at 2 mg/kg,iv measured at 0.083 to 24 hrs post administration by LC-MS/MS analysis; format: ADME, organism-based; settings: in vivo, time 0.083-24 hrs
[6] = Cmax in CD-1 mouse at 2 mg/kg,iv measured at 0.083 to 24 hrs post administration by LC-MS/MS analysis; format: ADME, organism-based; settings: in vivo, time 0.083-24 hrs
[7] = AUCinfinity in CD-1 mouse at 2 mg/kg,iv measured at 0.083 to 24 hrs post administration by LC-MS/MS analysis; format: ADME, organism-based; settings: in vivo, time 0.083-24 hrs
[8] = Drug accumulation in CD-1 mouse plasma assessed as fold change in drug uptake at 10 mg/kg,po measured at 0.083 to 24 hrs post administration by LC-MS/MS analysis; format: ADME, organism-based; settings: in vivo, time 0.083-24 hrs
[9] = Drug accumulation in CD-1 mouse liver assessed as fold change in drug uptake at 10 mg/kg,po measured at 0.083 to 24 hrs post administration by LC-MS/MS analysis; format: ADME, organism-based; settings: in vivo, time 0.083-24 hrs
[10] = Apparent volume of distribution at steady state in Sprague-Dawley rat at 2 mg/kg,iv measured at 0.083 to 24 hrs post administration by LC-MS/MS analysis; format: ADME, organism-based; settings: in vivo, time 0.083-24 hrs, read-out: Vdss(app)
[11] = Half life in Sprague-Dawley rat at 2 mg/kg,iv measured at 0.083 to 24 hrs post administration by LC-MS/MS analysis; format: ADME, organism-based; settings: in vivo, time 0.083-24 hrs
[12] = Cmax in Sprague-Dawley rat at 2 mg/kg,iv measured at 0.083 to 24 hrs post administration by LC-MS/MS analysis; format: ADME, organism-based; settings: in vivo, time 0.083-24 hrs
[13] = AUCinfinity in Sprague-Dawley rat at 2 mg/kg,iv measured at 0.083 to 24 hrs post administration by LC-MS/MS analysis; format: ADME, organism-based; settings: Sprague-Dawley, in vivo, time 0.083-24 hrs
[14] = Drug accumulation in Sprague-Dawley rat plasma assessed as fold change in drug uptake at 10 mg/kg,po measured at 0.083 to 24 hrs post administration by LC-MS/MS analysis; format: ADME, organism-based; settings: in vivo, time 0.083-24 hrs
[15] = Drug accumulation in Sprague-Dawley rat liver assessed as fold change in drug uptake at 10 mg/kg,po measured at 0.083 to 24 hrs post administration by LC-MS/MS analysis; format: ADME, organism-based; settings: in vivo, time 0.083-24 hrs
[16] = Cmax in Beagle dog at 2 mg/kg,iv measured at 0.083 to 24 hrs post administration by LC-MS/MS analysis; format: ADME, organism-based, Canis lupus familiaris; settings: in vivo, time 0.083-24 hrs
[17] = Cardiotoxicity in Langendorff-perfused New Zealand White rabbit heart assessed as increase in PR interval incubated for 45 mins by ECG analysis; format: toxicity, tissue-based, Oryctolagus cuniculus; settings: 0.75 h
[18] = Cardiotoxicity in Langendorff-perfused New Zealand White rabbit heart assessed as increase in QRS interval incubated for 45 mins by ECG analysis; format: toxicity, tissue-based, Oryctolagus cuniculus; settings: 0.75 h
[19] = Cardiotoxicity in Langendorff-perfused New Zealand White rabbit heart assessed as decrease in left ventricular pressure at 10 uM incubated for 45 mins by ECG analysis; format: toxicity, tissue-based, Oryctolagus cuniculus; design: scale not given: the % may be the effect or the level left; settings: 0.75 h
[20] = test system: HepG2 2.2.15; assay: Cytotoxicity against human HepG2.2.15 cells by Cell-titer Glo luminescent assay; format: functional
[21] = Kinetic solubility of compound in PBS at pH 4 incubated for 24 hrs by UPLC-UV analysis; format: physicochemical; settings: read-out: Kinetic_solubility
[22] = molecular target: Cytochrome P450 2C9 (Homo sapiens, UniProt P11712); assay: Reversible inhibition of CYP2C9 in human liver microsomes using diclofenac as substrate pre-incubated for 30 mins followed by NADPH addition and measured after 10 mins by LC-MS/MS analysis; format: ADME, Microsome
[23] = molecular target: Cytochrome P450 2D6 (Homo sapiens, UniProt P10635); assay: Reversible inhibition of CYP2D6 in human liver microsomes using dextromethorphan as substrate pre-incubated for 30 mins followed by NADPH addition and measured after 10 mins by LC-MS/MS analysis; format: ADME, Microsome
[24] = molecular target: Cytochrome P450 3A4 (Homo sapiens, UniProt P08684); assay: Reversible inhibition of CYP3A4 in human liver microsomes using midazolam as substrate pre-incubated for 30 mins followed by NADPH addition and measured after 10 mins by LC-MS/MS analysis; format: ADME, Microsome
[25] = Efflux ratio of apparent permeability from […] in human Caco-2 cells incubated for 120 mins by LC-MS/MS analysis; format: ADME, cell-based; settings: caco-2, 2 h
[26] = Clearance in Beagle dog at 2 mg/kg,iv measured at 0.083 to 24 hrs post administration by LC-MS/MS analysis; format: ADME, organism-based, Canis lupus familiaris; settings: in vivo, time 0.083-24 hrs
[27] = Cardiotoxicity in Langendorff-perfused New Zealand White rabbit heart assessed as increase in PR interval upto 10 uM incubated for 45 mins by ECG analysis; format: toxicity, tissue-based, Oryctolagus cuniculus; settings: 0.75 h
[28] = Cardiotoxicity in Langendorff-perfused New Zealand White rabbit heart assessed as increase in QRS interval upto 10 uM incubated for 45 mins by ECG analysis; format: toxicity, tissue-based, Oryctolagus cuniculus; settings: 0.75 h
[29] = Toxicity in dog assessed as NOAEL administrated for 28 days; design: species or system Canis lupus familiaris; settings: in vivo, time 28 day
[30] = test system: Hepatitis B virus; assay: Antiviral activity against AAV-Hepatitis B virus infected in C57BL/6 mouse assessed as serum HBsAg level at 3 mg/kg,po administrated once daily for 7 days by enzyme-linked immunoassay; format: functional; settings: time 7 day
[31] = test system: Hepatitis B virus; assay: Antiviral activity against AAV-Hepatitis B virus infected in C57BL/6 mouse assessed as serum HBsAg level at 10 mg/kg,po administrated once daily for 7 days by enzyme-linked immunoassay; format: functional; settings: time 7 day
[32] = test system: Hepatitis B virus; assay: Antiviral activity against AAV-Hepatitis B virus infected in human Primary hepatocyte assessed as reduction in HBsAg level measured after 16 days by ELISA; format: functional, organism-based; settings: 384 h
[33] = test system: Hepatitis B virus; assay: Antiviral activity against AAV-Hepatitis B virus infected in human Primary hepatocyte assessed as reduction in HBeAg level measured after 16 days by ELISA; format: functional, organism-based; settings: 384 h
[34] = test system: Hepatitis B virus; assay: Antiviral activity against AAV-Hepatitis B virus infected in human Primary hepatocyte assessed as reduction in HBV DNA level measured after 16 days by ELISA; format: functional, organism-based; settings: 384 h
[35] = Apparent volume of distribution at steady state in Sprague-Dawley rat at 10 mg/kg,po measured at 0.083 to 24 hrs post administration by LC-MS/MS analysis; format: ADME, organism-based; settings: in vivo, time 0.083-24 hrs
[36] = Tmax in Sprague-Dawley rat at 10 mg/kg,po measured at 0.083 to 24 hrs post administration by LC-MS/MS analysis; format: ADME, organism-based; settings: Sprague-Dawley, in vivo, time 0.083-24 hrs, read-out: Tmax

Cytochrome P450 2C9, sequence (P11712 whole entry): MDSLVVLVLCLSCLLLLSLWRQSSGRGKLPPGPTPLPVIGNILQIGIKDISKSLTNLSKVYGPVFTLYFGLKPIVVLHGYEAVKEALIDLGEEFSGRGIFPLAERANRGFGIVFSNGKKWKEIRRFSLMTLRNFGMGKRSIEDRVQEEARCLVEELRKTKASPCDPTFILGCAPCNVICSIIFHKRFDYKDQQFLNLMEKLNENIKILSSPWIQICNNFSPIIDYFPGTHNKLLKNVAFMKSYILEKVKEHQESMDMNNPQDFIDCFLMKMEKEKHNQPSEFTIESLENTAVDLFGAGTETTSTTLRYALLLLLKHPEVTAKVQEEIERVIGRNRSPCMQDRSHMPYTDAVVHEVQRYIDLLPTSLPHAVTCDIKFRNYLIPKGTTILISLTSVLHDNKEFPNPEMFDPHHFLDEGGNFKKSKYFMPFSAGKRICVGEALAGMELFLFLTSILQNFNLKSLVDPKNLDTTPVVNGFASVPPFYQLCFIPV
Cytochrome P450 3A4, sequence (P08684 whole entry): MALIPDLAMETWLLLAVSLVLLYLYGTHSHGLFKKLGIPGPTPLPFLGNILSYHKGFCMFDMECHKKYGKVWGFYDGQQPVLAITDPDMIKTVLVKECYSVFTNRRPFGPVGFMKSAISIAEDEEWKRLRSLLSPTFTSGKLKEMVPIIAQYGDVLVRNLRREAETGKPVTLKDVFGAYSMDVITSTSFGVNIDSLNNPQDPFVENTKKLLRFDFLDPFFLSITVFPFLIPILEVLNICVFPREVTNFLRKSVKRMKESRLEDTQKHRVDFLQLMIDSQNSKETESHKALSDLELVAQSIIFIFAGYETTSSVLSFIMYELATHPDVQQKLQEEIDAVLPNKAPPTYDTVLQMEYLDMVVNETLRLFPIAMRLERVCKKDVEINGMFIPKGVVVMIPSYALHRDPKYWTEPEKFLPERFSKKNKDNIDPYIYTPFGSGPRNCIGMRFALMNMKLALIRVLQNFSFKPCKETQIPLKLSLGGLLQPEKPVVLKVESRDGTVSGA
Cytochrome P450 2D6, sequence (P10635 whole entry): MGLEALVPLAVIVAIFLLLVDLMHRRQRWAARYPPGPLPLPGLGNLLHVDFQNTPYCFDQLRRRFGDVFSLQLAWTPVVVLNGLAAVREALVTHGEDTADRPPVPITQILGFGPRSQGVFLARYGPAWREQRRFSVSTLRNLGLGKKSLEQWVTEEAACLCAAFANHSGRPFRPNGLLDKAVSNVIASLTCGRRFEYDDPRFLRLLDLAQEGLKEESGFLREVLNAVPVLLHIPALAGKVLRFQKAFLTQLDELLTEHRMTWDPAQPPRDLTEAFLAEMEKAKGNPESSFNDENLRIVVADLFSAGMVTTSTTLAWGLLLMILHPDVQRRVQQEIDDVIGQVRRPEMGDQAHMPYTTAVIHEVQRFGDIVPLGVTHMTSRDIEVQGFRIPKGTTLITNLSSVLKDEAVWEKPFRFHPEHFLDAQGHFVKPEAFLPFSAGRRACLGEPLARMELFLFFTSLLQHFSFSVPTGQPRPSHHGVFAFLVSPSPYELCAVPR

Structure (SMILES)	microsomal CLint at 0.3 µM [1]	clearance [2]	Cmax [3]	Vd [4]	half-life [5]	Cmax [6]	AUC(0-inf) [7]	fold change (FC) [8]	fold change (FC) [9]	Vd [10]	half-life [11]	Cmax [12]	AUC(0-inf) [13]	fold change (FC) [14]	fold change (FC) [15]	Cmax [16]	Activity [17]	Activity [18]	Activity [19]	CC50 [20]	also measured
COCCCOc1cc2c(cc1OC)-c1cc(=O)c(C(=O)O)cn1[C@H](C(C)C)C2	2 µL/min/mg	8.6 mL/min/kg	1190 ng/mL	1.2 L/kg	1 h	1150 ng/mL	1280 ng·h/mL	< 1	< 1	0.7 L/kg	1.3 h	4950 ng/mL	4760 ng·h/mL	3.4	12	1500 ng/mL	Toxic	Toxic	20%		
COCCCOc1cc2c(nc1OC)-c1cc(=O)c(C(=O)O)cn1[C@H](C(C)C)C2	3 µL/min/mg	9.6 mL/min/kg	1540 ng/mL	1.5 L/kg	0.9 h	1180 ng/mL	1150 ng·h/mL	8.6	2.6	0.7 L/kg	1.3 h	3240 ng/mL	3500 ng·h/mL	8.7	28	2310 ng/mL			20%	> 50 µM	solubility kinetic at 24 h [21]: > 200 µM; IC50 [22]: > 25 µM; IC50 [23]: > 25 µM; IC50 [24]: > 25 µM; Ratio [25]: 3.8; clearance [26]: 5.4 mL/min/kg; Activity [27]: Non-Toxic; Activity [28]: Non-Toxic; NOAEL at 672 h [29]: 30 mg/kg; Activity [30]: 0.74 log10CFU; Activity [31]: 1.64 log10CFU; EC50 [32]: 0.003 µM; EC50 [33]: 0.003 µM; EC50 [34]: 0.003 µM
COCCCOc1cc2c(cc1Cl)-c1cc(=O)c(C(=O)O)cn1[C@H](C(C)C)CO2	5 µL/min/mg															2060 ng/mL	Toxic	Toxic	20%	39 µM	Vdss(app) [35]: 0.4 L/kg; Tmax [36]: 2.1 h; solubility kinetic at 24 h [21]: 31 µM (≈ 13.1 µg/mL); IC50 [22]: > 25 µM; IC50 [23]: > 25 µM; IC50 [24]: > 25 µM; Ratio [25]: 1.5; clearance [26]: 10 mL/min/kg
